Measurements as given in patent US8853373B2, “Method and reagent for gene sequence analysis” (Hitachi, Ltd., priority 2009, dated 2014).

Columns and labels:
[1] = molecular target: luciferase (Photinus pyralis, UniProt P08659); assay: Evaluation of substrate specificity for luciferase (luminescence on dispensing the substrate); type: biochemical; details: for Substrate specificity (S) for luciferase, relative to that of ATP: amount of luminescence per unit concentration, substrate specificity of ATP normalized as 1
Sequence of luciferase (P08659 whole entry, species assumed): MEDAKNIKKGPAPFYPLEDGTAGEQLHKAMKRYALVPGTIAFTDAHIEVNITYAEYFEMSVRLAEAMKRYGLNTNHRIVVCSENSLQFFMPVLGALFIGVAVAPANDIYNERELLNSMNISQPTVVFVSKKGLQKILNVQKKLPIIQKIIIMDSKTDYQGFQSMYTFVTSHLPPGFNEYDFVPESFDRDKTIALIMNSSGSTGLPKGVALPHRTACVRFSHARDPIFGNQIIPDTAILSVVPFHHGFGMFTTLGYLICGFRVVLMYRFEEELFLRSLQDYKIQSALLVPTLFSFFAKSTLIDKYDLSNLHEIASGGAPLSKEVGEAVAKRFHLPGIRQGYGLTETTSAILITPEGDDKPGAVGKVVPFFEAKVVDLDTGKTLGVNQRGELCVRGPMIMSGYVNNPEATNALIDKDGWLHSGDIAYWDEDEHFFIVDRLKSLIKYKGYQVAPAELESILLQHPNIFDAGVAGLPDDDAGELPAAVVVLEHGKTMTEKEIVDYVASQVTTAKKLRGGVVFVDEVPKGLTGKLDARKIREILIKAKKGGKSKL
Description: In respect to the nucleic acid substrates synthesized, whether or not the substrates became a substrate for luciferase was evaluated by the following procedure. First, a luminescence reagent designated in Condition 1 of Table 1 was prepared.
Next, a reaction solution was prepared using 20 μL of this luminescence reagent, and 0.2 μL of a nucleic acid substrate of evaluation subject was injected. Then, luminescence emitted at this occasion was estimated. FIG. 6 is a graph showing the amount of luminescence when ATP, dATP, C^7dATP, and dATPαS are each dispensed as a substrate. The abscissa (C) indicates a final concentration of the compound in a reaction reagent. For example, when 0.2 μl of 1 μM substrate is dispensed, the final concentration is about 0.01 μM. An amount of luminescence (U) indicated in the ordinate was plotted by normalizing the amount of luminescence at 0.01 μM of ATP as 1. From this graph, the amount of luminescence (U) is found to be proportional to the final concentration (C). Because of this, as a substrate specificity (or substrate reactivity) for luciferase, the value (S) indicating the amount of luminescence per unit concentration is defined as described below. Substrate specificity (S)≡Amount of luminescence (U)/Final concentration (C)[μM]×0.01 (In this Definition, the Substrate Specificity of ATP is Normalized as 1).
The four points designated in the left side of the graph indicate each substrate specificity (S) of ATP, dATP, dATPαS, and C^7dATP. For a sequencing method using a stepwise chemical reaction represented by pyrosequencing, the amount of ATP generated from pyrophosphate produced in elongation of one nucleotide is equivalent to the amount of a target present in a reaction solution when all of the targets have been elongated. In addition, elongation of a plurality of nucleotides causes the amount to be multiplied by the number of the nucleotides. Generally speaking, the amount of a nucleic acid substrate which should be dispensed per reaction for sequencing requires about 100 times the amount of the target for analysis. This is because a sequenced region may sometimes contain about 10 consecutive identical nucleotides; and a reaction solution for this sequencing method has a substrate-degrading enzyme together, so that the nucleic acid elongation and substrate degradation are competed. Shortage of the substrates causes incomplete elongation, so that the following sequence analysis cannot be carried out. […] As a countermeasure against it, the substrate having about 100 times the target amount which has been generally used is preferably dispensed per reaction.
In this Example, the synthesized nucleic acid substrates were purified by liquid chromatography. However, removal of pyrophosphate that had been incorporated during the synthesis may be insufficiently carried out only by liquid chromatography-mediated purification. At that occasion, the present inventors treated the synthesized nucleic acid substrates by a pyrophosphate-degrading enzyme (PPase) to decompose the pyrophosphate. Specifically, the synthesized nucleic acid substrate was diluted in a reaction solution (100 mM Tris-Acetate, 0.5 mM EDTA, 5 mM Mg-Acetate, 1 mM DTT, pH 7.5) at a concentration of 500 μM. Then, PPase was added at 0.2 mU/μL, and the mixture was reacted at 30° C. for 30 minutes, which caused degradation of pyrophosphate in the solution. This method represents one example. […]

[2] = tested on: Sequence S1; assay: Sequence analysis by stepwise chemical reaction (pyrogram), ATP sulfurylase system, Condition 3; type: biochemical; details: Sequence S1 (maximum two consecutive nucleotides); final concentration 2 μM
Description: Next, by using the developed substrates, nucleotide sequences were analyzed. FIG. 15 is pyrograms showing the results of sequence analysis using synthetic nucleotide A3d as a substitute for dATP in a sequencing method using a stepwise chemical reaction. The analyzed oligo Sequence S1 and a primer […] are described below.
Of note is that the Sequence P2 represents a primer sequence. This primer can complementarily bind to the underlined portion of the above Sequence S1. In addition, reagent conditions used for the sequence analysis were designated in Condition 3 of Table 1.
At the bottom of each diagram, the injected nucleic acid substrate species (the injected nucleotide type) were designated. Among the species, the substrate represented by “A” is A3d in (1) and dATPαS in (2), respectively. Also, at the top, nucleotide types which were incorporated in this oligo were designated. Specifically, the nucleotide types represent a complementary strand sequence that is an upstream sequence of the portion (the underlined portion of the Sequence S1) which complementarily binds to the primer P2. […] In addition, the broken lines represent standard values which convert the amount of the resulting luminescence into the number of nucleotides. For example, with regard to the above “CC”, the amount of luminescence equivalent to two nucleotides was observed. […]

Compound | Substrate specificity for luciferase compared with that of dATPαS ([1]; FIG. 7) | Substrate specificity (S) for luciferase, relative to that of ATP [1] | Sequence analysis result as substitute for dATP [2]
Nc1ncnc2c1c(/C=C/C(=O)NCCc1ccncc1)cn2[C@H]1CC(O)[C@@H](COP(=O)(O)OP(=O)(O)OP(=O)(O)O)O1 (some centres unmarked) [A3d] | about one order higher | 1/1000 | can be used for a nucleotide sequence analysis
Nc1ncnc2c1ncn2[C@H]1C[C@H](O)[C@@H](COP(O)(=S)OP(=O)(O)OP(=O)(O)O)O1 (some centres unmarked) [dATPαS] |  | 1/10000 | can be used for a nucleotide sequence analysis
